Laboratory results published in patent US20070254907A1, “COMPOSITIONS AND METHODS FOR CONTROLLING INFESTATION” (HATCHTECH PTY LTD, priority 2003, published 2007).
Entries after “also recorded” stand apart in the source; their conditions may differ. Like-named read-outs stand apart in the source and are kept apart here.

Assays:
[1] = tested on: lice eggs; assay: whole plant or invertebrate; type: in vivo; details: for inhibition at 10000 µM / inhibition at 2500 µM / inhibition at 5000 µM: read-out: Percent inhibition of egg hatching; for inhibition at 2500 µM: 2.5 mM; for inhibition at 5000 µM: 5 mM
[2] = tested on: Plutella xylostella eggs; assay: whole plant or invertebrate; type: in vivo; details: for Ovicidal activity % / Activity class 0 = inactive 1 = low 2 = med 3 = high: Plutella (P); for % Inhibition: relative to controls
Description: The ovicidal efficacy of 2-acetyl-1-tetralone was also tested against Plutella eggs.

[3] = tested on: Plutella xylostella eggs; assay: Reversal of inhibition of Plutella egg hatching by added FeSO4; type: in vivo
Description: (§1) Within 24 hours of collection the following experimental design was chosen. Batches of eggs were exposed to 10 mM 6,6′-dimethyl-2,2′-dipyridyl for 2 seconds while additional batches of eggs were exposed to the solvent only (Methanol) for 2 seconds. All batches of eggs were allowed to air dry for 20 minutes at room temperature. The eggs were then given a 2 second exposure to FeSO4 at either 10, 5 or 1 mM, air dried and put in the incubator at 24° C. and allowed to hatch over the next 6 days. In addition, a positive control of 10 mM 6,6′-dimethyl-2,2′-dipyridyl was set up in which eggs were exposed to this compound for 2 seconds, air dried and placed in the incubator.
as §1, with “10 mM 5,5′-dimethyl-2,2′-dipyridyl for 2” for “10 mM 6,6′-dimethyl-2,2′-dipyridyl for 2”, “FeSO4 at 10, 5” for “FeSO4 at either 10, 5”, “put in an incubator at” for “put in the incubator at”, “of 10 mM, 5,5′-dimethyl-2,2′-dipyridyl was set” for “of 10 mM 6,6′-dimethyl-2,2′-dipyridyl was set”

[4] = tested on: B. ovis eggs; assay: Egg hatching in Bovicola ovis; type: in vivo; details: 10 mM; for Number hatched in different replicates: 10 eggs per replicate; for % Inhibition: in comparison to the controls; for Number unhatched: per replicate
Description: B. ovis eggs were collected from the wool of sheep that were infested with this parasite. The eggs were collected using forceps and with the aid of a dissecting microscope and placed in 24 well tissue culture plates in duplicate lots of 10 eggs per replicate. The eggs were then exposed to either methanol alone (control) or the test compounds for either 10 minutes or 1 minute before being removed from the wells and placed into individual glass vials containing a diet at the base of the tube. The tubes were placed in plastic containers containing a salt solution (to keep humidity constant at 68%) and the containers maintained at a temperature 32° C. The eggs were monitored for hatching over the following 12 days and % hatch inhibition determined in comparison to the controls.

[5] = tested on: Lice (L) and Plutella (P) eggs; details: Lice (L) and Plutella (P)
[6] = tested on: Helicoverpa armigera eggs; assay: Egg hatching of Helicoverpa armigera
Description: A range of concentrations were made up in water and the eggs placed in the solutions for approximately 2-10 seconds. The eggs which had been laid on cloth were then blotted dry and placed in an incubator at 26° C. for 3-4 days until hatch. Hatch rates were then assessed compared to a water only treated control (FIG. 5).
The compound was dissolved in 100% diethoxyglycol and diluted to a final concentration of 1% in water.
Several hundred Helicoverpa armigera eggs (Tatura×Toowoomba strains) were collected, that had been laid on fine mesh cloth over a 24 hour period.
Batches of Helicoverpa eggs were exposed to a specific inhibitor solution for between 2-10 seconds the excess solution drained by blotting with dry tissue paper. The egg masses were then placed in a humid box at 25 degrees until egg hatch. Control eggs were exposed to absolute methanol as described above. At day 6 post laying the eggs were assessed from the different treatments and the percentage of egg hatch determined relative to the control as shown in Table 12.
Batches of Helicoverpa eggs were then exposed to a specific inhibitor solution for between 2-10 seconds the excess solution drained by blotting with dry tissue paper. The egg masses were then placed in a humid box at 25° C. until egg hatch. Control eggs were exposed to absolute methanol as described above. At day 6 post laying the eggs were assessed from the different treatments and the percentage of egg hatch determined relative to the control as shown in Table 13.

[7] = Table 10, eggs laid on cloth, 1 mM
[8] = Table 10, eggs laid on cloth, 10 mM
[9] = Table 11, eggs laid on parafilm, 1 mM
[10] = Table 11, eggs laid on parafilm, 10 mM
[11] = 10 mM chelator followed by 2 second exposure to 1 mM FeSO4
[12] = 10 mM chelator followed by 2 second exposure to 5 mM FeSO4
[13] = 10 mM chelator followed by 2 second exposure to 10 mM FeSO4
[14] = 10 mM chelator followed by 2 second exposure to MEOH
[15] = 10 mM chelator, 2 s, (+ve) control without second exposure
[16] = Pediculus humanus, 24 h, treated 24 hr post egg laying
[17] = Pediculus humanus, 48 h, treated 48 hr post egg laying
[18] = Pediculus humanus, 72 h, treated 72 hr post egg laying
[19] = Pediculus humanus, 96 h, treated 96 hr post egg laying
[20] = Pediculus humanus, 120 h, treated 120 hr post egg laying
[21] = Pediculus humanus, 144 h, treated 144 hr post egg laying
[22] = Table 9, 1 mM, dipped 2-10 s, day 6 post laying
[23] = Table 9, 10 mM, dipped 2-10 s, day 6 post laying

SMILES: Cc1ccc(-c2ccc(C)cn2)nc1 [5,5′-dimethyl-2,2′-dipyridyl]
- Ovicidal activity % ([1]; Lice (L), 30 mM): 100.00%
- Activity class 0 = inactive 1 = low 2 = med 3 = high ([1]; Lice (L), listed as of 30 mM): 2 (a pLD50 value between 3 and 4 is considered moderately active (Class 2))
- effect on egg hatching of Plutella xylostella (words) ([2]; 10 and 1 mM): significantly inhibit egg hatching
- Ovicidal activity % ([2]; 0.1 mM): 57.00%
- Ovicidal activity % ([2]; 1 mM): 98.00%
- Activity class 0 = inactive 1 = low 2 = med 3 = high ([2]; listed as of 0.1 mM): 3 (a pLD50 greater than 4 is considered strongly active (Class 3))
- Activity class 0 = inactive 1 = low 2 = med 3 = high ([2]; listed as of 1 mM): 3 (a pLD50 greater than 4 is considered strongly active (Class 3))
- Number hatched [2, 7]: 5
- Number unhatched [2, 7]: 22
- % Inhibition [2, 7]: 78%
- Number hatched [2, 8]: 0
- Number unhatched [2, 8]: 21
- % Inhibition [2, 8]: 100%
- Number hatched [2, 9]: 18
- Number unhatched [2, 9]: 133
- % Inhibition [2, 9]: 88%
- Number hatched [2, 10]: 0
- Number unhatched [2, 10]: 138
- % Inhibition [2, 10]: 100%
- Number hatched [3, 11]: 39
- Number unhatched [3, 11]: 0
- % Inhibition ([3]; 10 mM chelator followed by 2 second exposure to 1 mM FeSO4, relative to FeSO4 controls): 0%
- Number hatched [3, 12]: 25
- Number unhatched [3, 12]: 0
- % Inhibition ([3]; 10 mM chelator followed by 2 second exposure to 5 mM FeSO4, relative to FeSO4 controls): 0%
- Number hatched [3, 13]: 23
- Number unhatched [3, 13]: 2
- % Inhibition ([3]; 10 mM chelator followed by 2 second exposure to 10 mM FeSO4, relative to FeSO4 controls): 8%
- % Inhibition [3, 14]: 55%
- Number hatched [3, 14]: 16
- Number unhatched [3, 14]: 19
- % Inhibition [3, 15]: 100%
- Number hatched [3, 15]: 0
- Number unhatched [3, 15]: 38
- effect of added Fe in FeSO4 on the chelator's inhibition of egg hatching ([3]; 10 mM chelator, then FeSO4 10, 5 or 1 mM): able to reverse the effects
- inhibition of egg hatching after MeOH alone post exposure ([3]; 10 mM chelator, then MeOH): significant degree of inhibition of egg hatching
- egg hatching in the louse ([4]; 10 or 1 minute exposure): completely inhibited
- Number hatched in different replicates ([4]; 1 minute exposure): Rep 1. 0; also recorded: Rep 2. 0
- % Inhibition ([4]; 1 minute exposure): 100%
- Number unhatched ([4]; 1 minute exposure): 10
- Number hatched in different replicates ([4]; 10 minute exposure): Rep 2. 0; also recorded: Rep 1. 0
- % Inhibition ([4]; 10 minute exposure): 100%
- Number unhatched ([4]; 10 minute exposure): 10
- Ovicidal activity % ([5]; 10 mM): 100.00%
- Activity class 0 = inactive 1 = low 2 = med 3 = high ([5]; listed as of 10 mM): 3 (a pLD50 greater than 4 is considered strongly active (Class 3))
- effect on egg hatching of Helicoverpa armigera (words) ([6]; 10 mM): significant inhibition of egg hatching
- Number hatched ([6]; Table 13, 10 mM): 0
- Number unhatched ([6]; Table 13, 10 mM): 42
- % Inhibition ([6]; Table 13, 10 mM, relative to the control (100% MeOH)): 100%

SMILES: c1cnc2c(c1)ccc1cccnc12 [1,10-phenanthroline, reference compound]
- inhibition of lice egg hatching following washing of eggs in water ([1]; 10 mM, then 1 minute wash): still highly efficacious at inhibiting lice egg hatching
- embryo development in treated eggs ([1]; 10 mM, a proportion of eggs): had embryos that appeared to develop normally yet failed to hatch
- inhibition of egg hatching in lice ([1]; 10 mM, eggs treated 5 days post laying, 10 min): significantly inhibited egg hatching
- inhibition at 1000 µM ([1]; Pediculus humanus, 1 mM, eggs treated 5 days post laying, 10 min, read-out: level of inhibition of egg hatching compared to controls): ~30%
- inhibition at 10000 µM ([1]; Pediculus humanus, 10 mM, 10 minutes, not washed, treated 24 hr post laying): 100%
- inhibition at 10000 µM ([1]; Pediculus humanus, 10 mM, 10 minutes, not washed, treated 48 hr post laying): 100%
- inhibition at 10000 µM ([1]; Pediculus humanus, 10 mM, 10 minutes, not washed, treated 72 hr post laying): 100%
- inhibition at 10000 µM ([1]; Pediculus humanus, 10 mM, 10 minutes, not washed, treated 96 hr post laying): 100%
- inhibition at 10000 µM ([1]; Pediculus humanus, 10 mM, 10 minutes, not washed, treated 120 hr post laying): 100%
- inhibition at 10000 µM ([1]; Pediculus humanus, 10 mM, 10 minutes, washed for 1 minute, treated 24 hr post laying): 100%
- inhibition at 10000 µM ([1]; Pediculus humanus, 10 mM, 10 minutes, washed for 1 minute, treated 48 hr post laying): 100%
- inhibition at 10000 µM ([1]; Pediculus humanus, 10 mM, 10 minutes, washed for 1 minute, treated 72 hr post laying): 100%
- inhibition at 10000 µM ([1]; Pediculus humanus, 10 mM, 10 minutes, washed for 1 minute, treated 96 hr post laying): 97%
- inhibition at 10000 µM ([1]; Pediculus humanus, 10 mM, 10 minutes, washed for 1 minute, treated 120 hr post laying): 62%
- inhibition at 2500 µM [1, 16]: 100%
- inhibition at 5000 µM [1, 16]: 100%
- inhibition at 10000 µM ([1]; Pediculus humanus, 24 h, 10 mM, treated 24 hr post egg laying): 100%
- inhibition at 2500 µM [1, 17]: 100%
- inhibition at 5000 µM [1, 17]: 100%
- inhibition at 10000 µM ([1]; Pediculus humanus, 48 h, 10 mM, treated 48 hr post egg laying): 100%
- inhibition at 2500 µM [1, 18]: 85%
- inhibition at 5000 µM [1, 18]: 100%
- inhibition at 10000 µM ([1]; Pediculus humanus, 72 h, 10 mM, treated 72 hr post egg laying): 100%
- inhibition at 2500 µM [1, 19]: 85%
- inhibition at 5000 µM [1, 19]: 100%
- inhibition at 10000 µM ([1]; Pediculus humanus, 96 h, 10 mM, treated 96 hr post egg laying): 100%
- inhibition at 2500 µM [1, 20]: 89%
- inhibition at 5000 µM [1, 20]: 93%
- inhibition at 10000 µM ([1]; Pediculus humanus, 120 h, 10 mM, treated 120 hr post egg laying): 100%
- inhibition at 2500 µM [1, 21]: 60%
- inhibition at 5000 µM [1, 21]: 96%
- inhibition at 10000 µM ([1]; Pediculus humanus, 144 h, 10 mM, treated 144 hr post egg laying): 100%
- inhibition of egg hatching ([1]; added within 24 hours of hatching): variable inhibition of egg hatching
- inhibition of lice egg hatching in time-course experiments ([1]; varying concentrations (10, 5, 2.5 mM), 24-144 hr post egg laying): Significant inhibition; also recorded: significantly inhibit egg hatching in lice at all time points examined
- effect on egg hatching of Plutella xylostella (words) ([2]; 10 mM): significantly inhibit egg hatching
- inhibition at 1000 µM ([2]; Plutella xylostella, Table 9, 1 mM, relative to control (100% MeOH), read-out: % Inhibition): 0%
- inhibition at 10000 µM ([2]; Plutella xylostella, Table 9, 10 mM, relative to control (100% MeOH), read-out: % Inhibition): 100%
- Number hatched [2, 22]: 15
- Number unhatched [2, 22]: 16
- Number hatched [2, 23]: 0
- Number unhatched [2, 23]: 45
- effect on egg hatching of Helicoverpa armigera (words) ([6]; 10 mM): able to inhibit egg hatching
- inhibition at 1000 µM ([6]; Helicoverpa armigera): 0%
- inhibition at 10000 µM ([6]; Helicoverpa armigera): 44%
- Number hatched ([6]; Table 12, 10 mM): 31
- Number unhatched ([6]; Table 12, 10 mM): 16
